Experimental data reported in patent publication US12697359B2, “Composition for preventing hair loss and promoting hair growth comprising postbiotic components from heat-treat Limosilactobacillus fermentum LM1020” (priority 2023, dated 2026).

Tested on: dermal papilla cells
Test: Dermal papilla cell growth promotion effect of functional raw materials and heat-treated LM1020, alone or combined (Colby prediction)
Format: cell-based, human
Conditions: for effect on growth of dermal papilla cells / Effect of promoting growth of dermal papilla cell (%) Measured value: medium lacking growth factor; for Effect of promoting growth of dermal papilla cell (%) Measured value: raw material alone or LSD mixture, without LM1020
Method: The effect on the growth of dermal papilla cells was confirmed when the heat-treated Limosilactobacillus fermentum LM1020 was used together with L-menthol, salicylic acid, and dexpanthenol, which are active ingredients frequently used for functional cosmetics that help relieve hair loss symptoms. After the dermal papilla cells were seeded in a 96-well plate and cultured for 24 hours, the medium in the well was replaced with a medium lacking growth factor and further cultured for 24 hours. Then, the heat-treated Limosilactobacillus fermentum LM1020, L-menthol, salicylic acid, and dexpanthenol were used alone or mixed in a ratio of […] and used for treatment of dermal papilla cells prepared by the above-described method to determine the effect on the growth of the dermal papilla cells.
A growth rate of dermal papilla cells when cultured alone and growth rates of dermal papilla cells when treated alone or in a combination of L-menthol, salicylic acid, dexpanthenol, and the heat-treated Limosilactobacillus fermentum LM1020 were calculated. Then, the effects of the respective treatment materials on the promotion of growth of dermal papilla cells were calculated using the formula below and compared with each other. All the tests were repeated three times, and the average of each result was calculated and compared. • Dermal papilla cell growth promotion effect (%)=(B−A)÷A×100 • A=Growth rate of dermal papilla cells in non-treatment group • B=Growth rate of dermal papilla cells when treated with L-menthol, salicylic acid, dexpanthenol, and heat-treated Limosilactobacillus fermentum LM1020
Meanwhile, it was confirmed that when the heat-treated Limosilactobacillus fermentum LM1020 is used for treatment together with compounds of L-menthol, salicylic acid, and dexpanthenol, it is possible to overcome the effect of the compounds on the inhibition of growth of dermal papilla cells and promote the growth of dermal papilla cells. In order to thoroughly understand their synergistic effect, the effect to be predicted was calculated using the Colby formula, and a prediction value was compared with an experimental value (measurement value) to verify whether a synergistic effect exceeding the prediction value can be achieved.

With `CC(C)[C@@H]1CC[C@@H](C)C[C@H]1O` [L-menthol] the “effect on growth of dermal papilla cells” value was “inhibit the growth of dermal papilla cells” and the “Effect of promoting growth of dermal papilla cell (%) Measured value” (from here on “Effect of promoting growth … (%) Measured value”) was −12.05 ± 3.31%.
With `O=C(O)c1ccccc1O` [salicylic acid] the “effect on growth of dermal papilla cells” value was “inhibit the growth of dermal papilla cells” and the “Effect of promoting growth … (%) Measured value” was −0.39 ± 0.80%.
With `CC(C)(CO)[C@@H](O)C(=O)NCCCO` [dexpanthenol] the “effect on promotion of growth of dermal papilla cells compared with heat-treated LM1020” value (dexpanthenol alone vs LM1020 alone) was “lower than that of the heat-treated Limosilactobacillus fermentum LM1020 at all concentrations”, the “effect on growth of dermal papilla cells” value was “able to promote the growth of dermal papilla cells” and the “Effect of promoting growth … (%) Measured value” was 2.35 ± 1.61%.
